Results published in patent publication US20250090510A1, “eIF4G1-eIF1 INHIBITORS AND USE THEREOF” (YEDA RESEARCH AND DEVELOPMENT CO. LTD., priority 2022, published 2025).

How the values were obtained:
[1] = Analysis of uptake (intracellular levels) by LC-MS; assay type: in vitro ADME; settings: for concentration by LC-MS, Media: Media (amount applied)
Protocol: To determine the intracellular levels of i14G1-10 and i14G1-12, cells treated with these drugs for 3 h were extensively washed and then analyzed by LC-MS. Both compounds were detected within the cells, but the amount of i14G1-12 was substantially lower than the amount that was applied (Table 4).

[2] = tested on: near cognate start codon initiation in HEK293T cells; assay: Firefly luciferase reporter with AUG or near cognate start codons; assay type: cell-based, human; settings: 5 μM, 16 h
Protocol: FIGS. 4A-L: The effect eIF1-eIF4G1 inhibition by i14G1-10 or i14G1-12 on global translation is linked to start codon stringency. (4A) HEK293T cells were treated with DMSO, i14G1-10 (20 μM), and i14G-20 (10 μM) for 3 h and then ribosome foot printing libraries were prepared, sequenced and analyzed as described in the scheme. The presented graphs show meta-gene analysis of the distribution of normalized reads in the coding region (CDS) and 5′UTR of all analyzed genes in DMSO (black), i14G1-10 (blue), and i14G1-12 (red). […] (4F) The translation efficiency of eIF1 in DMSO, i14G1-10 and i14G1-12 samples calculated from the Ribo-seq data. […] (4J) Scatter plots showing the translation efficiencies correlations (R2 >0.9) of all analyzed genes between the two independent replicate experiments with DMSO (vehicle control) (top), i14G1-10 (middle), and i14G1-12 (bottom). (4K) Scatter plots showing the translation efficiencies correlations between 5′UTR and CDS (Pearson's r >0.5) of all analyzed genes of two independent replicate experiments with i14G1-10 (left) and i14G1-12 (right).
Reporter assays. […] The luminescence was measured on Turner Biosystems Luminometer.
Next, the sequence context of the translation initiation site (TIS) in the ribosome footprints of the 5′UTR in DMSO, i14G1-10 or i14G1-12 samples was determined. To assign the 5′UTR TISs, the Hrr+CHX reads were used (see Materials and Methods). […]

[3] = cells treated 3 h, extensively washed

Row | SMILES | concentration by LC-MS, Media [1] | concentration by LC-MS, i14G1-10 treated cells [1, 3] | concentration by LC-MS, i14G1-12 treated cells [1, 3] | near cognate start codon reporter activities relative to AUG [2]
1 | O=C(/C=C/Sc1ccc(C(F)(F)F)cn1)c1ccccc1 [i14G1-10] | 6200 ng/mL | 1130 ± 40 ng/mL | Not detected | significantly enhanced the activities of ACG, CUG, GUG, and UUG relative to AUG
2 | Cn1ccnc1S/C(=C/C=C(C#N)C#N)c1ccc(Cl)cc1 [i14G1-12] | 3300 ng/mL | Not detected |  | significantly enhanced the activities of ACG, CUG, GUG, and UUG relative to AUG
